The values below come from patent US20250115598A1 (Anaxis Pharma Pty Ltd, priority 2021, published 2025).

pKd: −log10 of the molar value. Some results are limits rather than exact numbers.

For one experiment, the target named is human MLKL (full length) (Homo sapiens (Human), UniProt Q8NB16). Kind of experiment: KINOMEscan binding assay, human MLKL (full length). Conditions: KINOMEscan, Table 21; read-out: Human MLKL (full-length) (KD). A digest of the protocol: (§1)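 Tagged kinase + immobilized ligand beads + compound; eluted kinase quantified by qPCR. Kinase source: T7 phage lysate (BL21-derived E. coli, 32 °C) or HEK-293 with DNA tag. 11-pt 3-fold series, 1% DMSO, top 30,000 nM (most). Hill fit, slope −1 → Kd.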

Another experiment deals with human RIPK1 (Homo sapiens (Human), UniProt Q13546). The experiment in a line: KINOMEscan binding assay, human RIPK1. Conditions: Table 21. An outline of the steps:
as §1

For a further experiment, the target named is human RIPK3 (Homo sapiens (Human), UniProt Q9Y572). Kind of experiment: KINOMEscan binding assay, human RIPK3. To be noted: Table 21. An outline of the steps: as §1
Chain of human RIPK3 (Q9Y572 whole entry): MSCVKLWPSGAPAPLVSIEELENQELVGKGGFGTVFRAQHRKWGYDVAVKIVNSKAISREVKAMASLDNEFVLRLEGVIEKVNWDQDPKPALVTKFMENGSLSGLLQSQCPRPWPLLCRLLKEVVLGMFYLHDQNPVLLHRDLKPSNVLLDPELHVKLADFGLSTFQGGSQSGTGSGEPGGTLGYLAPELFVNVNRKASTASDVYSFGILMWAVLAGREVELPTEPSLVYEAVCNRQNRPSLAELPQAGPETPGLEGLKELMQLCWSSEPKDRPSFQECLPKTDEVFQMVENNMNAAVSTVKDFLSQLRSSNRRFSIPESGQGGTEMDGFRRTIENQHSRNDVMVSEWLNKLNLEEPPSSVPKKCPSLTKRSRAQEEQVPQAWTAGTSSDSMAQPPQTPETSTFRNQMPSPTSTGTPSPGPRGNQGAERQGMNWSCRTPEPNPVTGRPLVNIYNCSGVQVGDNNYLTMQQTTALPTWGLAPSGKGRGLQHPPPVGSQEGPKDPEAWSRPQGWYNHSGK

Chain of human MLKL (full length) (Q8NB16 whole entry): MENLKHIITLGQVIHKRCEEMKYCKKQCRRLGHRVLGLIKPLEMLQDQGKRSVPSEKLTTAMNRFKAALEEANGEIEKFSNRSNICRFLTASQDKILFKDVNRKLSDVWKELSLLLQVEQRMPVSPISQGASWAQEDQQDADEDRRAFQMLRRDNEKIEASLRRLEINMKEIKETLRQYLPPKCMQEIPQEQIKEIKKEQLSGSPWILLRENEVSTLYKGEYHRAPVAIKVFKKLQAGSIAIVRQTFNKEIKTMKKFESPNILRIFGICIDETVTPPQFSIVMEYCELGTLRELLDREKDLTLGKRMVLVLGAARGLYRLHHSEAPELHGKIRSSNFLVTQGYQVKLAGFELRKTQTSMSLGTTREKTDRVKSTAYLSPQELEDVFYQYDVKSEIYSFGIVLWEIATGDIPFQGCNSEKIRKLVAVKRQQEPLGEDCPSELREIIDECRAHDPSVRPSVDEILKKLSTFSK
Chain of human RIPK1 (Q13546 whole entry): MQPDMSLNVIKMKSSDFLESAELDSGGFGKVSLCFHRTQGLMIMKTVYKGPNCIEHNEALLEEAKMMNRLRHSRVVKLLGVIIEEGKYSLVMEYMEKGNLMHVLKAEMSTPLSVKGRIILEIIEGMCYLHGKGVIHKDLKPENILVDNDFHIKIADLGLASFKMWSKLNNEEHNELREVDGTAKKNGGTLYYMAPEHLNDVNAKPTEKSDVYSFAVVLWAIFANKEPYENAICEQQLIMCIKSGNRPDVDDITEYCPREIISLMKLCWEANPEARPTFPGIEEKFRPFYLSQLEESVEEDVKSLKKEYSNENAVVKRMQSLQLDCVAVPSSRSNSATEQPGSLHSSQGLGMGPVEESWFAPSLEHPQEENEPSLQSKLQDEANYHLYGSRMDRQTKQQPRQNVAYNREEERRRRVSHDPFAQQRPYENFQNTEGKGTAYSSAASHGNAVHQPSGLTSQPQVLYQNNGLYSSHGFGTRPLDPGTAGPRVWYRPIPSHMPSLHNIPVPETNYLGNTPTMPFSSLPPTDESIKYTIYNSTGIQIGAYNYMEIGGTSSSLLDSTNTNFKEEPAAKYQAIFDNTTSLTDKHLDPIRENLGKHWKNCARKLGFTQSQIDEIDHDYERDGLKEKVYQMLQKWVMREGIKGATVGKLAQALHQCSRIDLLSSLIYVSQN

`Nc1n[nH]c2nccc(-c3ccc(NS(=O)(=O)CC(F)(F)F)c(OCc4ccc(F)cc4)c3)c12` [Compound 67, N-(4-(3-Amino-1H-pyrazolo[3,4-b]pyridin-4-yl)-2-((4-fluorophenyl)methoxy)phenyl)-2,2,2-trifluoroethane-1-sulfonamide]: the values for the pKd on human MLKL (full length), on human RIPK1 and on human RIPK3 were over 9.00, under 5.00 and under 5.00, respectively.

For `C[C@H](Oc1cc(-c2nn(C)c3c(-c4cnn(C5CCOC5)c4)cnc(N)c23)ccc1NS(=O)(=O)C(F)F)c1ccc(F)cc1` (stereo partly drawn) [Compound 41, N-(4-(4-amino-1-methyl-7-(1-(tetrahydrofuran-3-yl)-1H-pyrazol-4-yl)-1H-pyrazolo[4,3-c]pyridin-3-yl)-2-((S)-1-(4-fluorophenyl)ethoxy)phenyl)-1,1-difluoromethanesulfonamide], the results for the pKd on human MLKL (full length), at human RIPK1 and on human RIPK3 were over 9.00, under 5.00 and under 5.00, respectively.

`C[C@H](Oc1cc(-c2nn(C)c3c(-c4cnn(C5CC(C)(C)N(C)C(C)(C)C5)c4)cnc(N)c23)ccc1NS(=O)(=O)C(F)F)c1ccc(F)cc1` [Compound 162, (S)-N-(4-(4-amino-1-methyl-7-(1-(1,2,2,6,6-pentamethylpiperidin-4-yl)-1H-pyrazol-4-yl)-1H-pyrazolo[4,3-c]pyridin-3-yl)-2-(1-(4-fluorophenyl)ethoxy)phenyl)-1,1-difluoromethanesulfonamide]: the pKd is over 9.00 on human MLKL (full length), under 5.00 on human RIPK1 and under 5.00 at human RIPK3.

On to `C[C@H](Oc1cc(-c2nn(C)c3ccnc(N)c23)ccc1NS(=O)(=O)C(F)F)c1ccc(F)cc1` [Compound 17, N-(4-{4-amino-1-methyl-1H-pyrazolo[4,3-c]pyridin-3-yl}-2-[(1S)-1-(4-fluorophenyl)ethoxy]phenyl)-1,1-difluoromethanesulfonamide], for which the figures for the pKd on human MLKL (full length), at human RIPK1 and at human RIPK3 were over 9.00, under 5.00 and under 5.00, respectively.

Consider `CC(C)Oc1cc(-c2nn(C)c3c(-c4cnn(C5CCOCC5)c4)cnc(N)c23)ccc1NS(=O)(=O)C(F)F` [Compound 144, N-(4-(4-amino-1-methyl-7-(1-(tetrahydro-2H-pyran-4-yl)-1H-pyrazol-4-yl)-1H-pyrazolo[4,3-c]pyridin-3-yl)-2-isopropoxy-phenyl)-1,1-difluoromethane-sulfonamide], for which the pKd was over 9.00 on human MLKL (full length), under 5.00 at human RIPK1 and under 5.00 on human RIPK3.

As for `Nc1n[nH]c2ncnc(-c3ccc(NS(=O)(=O)C(F)F)c(OCc4ccc(F)cc4)c3)c12` [Compound 69, N-(4-(3-Amino-1H-pyrazolo[3,4-d]pyrimidin-4-yl)-2-((4-fluorophenyl)methoxy)phenyl)-1,1-difluoromethanesulfonamide], the figures for the pKd at human MLKL (full length), on human RIPK1 and on human RIPK3 were over 9.00, under 5.00 and under 5.00, respectively.

Consider `C[C@H](Oc1cc(-c2nn(C)c3c(-c4cnn(C(C)(C)CO)c4)cnc(N)c23)ccc1NS(=O)(=O)C(F)F)c1ccc(F)cc1` [Compound 97, (S)-N-(4-(4-amino-7-(1-(1-hydroxy-2-methylpropan-2-yl)-1H-pyrazol-4-yl)-1-methyl-1H-pyrazolo[4,3-c]pyridin-3-yl)-2-(1-(4-fluorophenyl)ethoxy)phenyl)-1,1-difluoromethanesulfonamide], for which the results for the pKd at human MLKL (full length), at human RIPK1 and at human RIPK3 were over 9.00, under 5.00 and under 5.00, respectively.

With `C[C@H](Oc1cc(-c2nn(C)c3c(-c4cnn(C5CC6CCC(C5)N6C)c4)cnc(N)c23)ccc1NS(=O)(=O)C(F)F)c1ccc(F)cc1` (stereo partly drawn) [Compound 73, N-(4-(4-amino-1-methyl-7-(1-(8-methyl-8-azabicyclo[3.2.1]octan-3-yl)-1H-pyrazol-4-yl)-1H-pyrazolo[4,3-c]pyridin-3-yl)-2-((S)-1-(4-fluorophenyl)ethoxy)phenyl)-1,1-difluoromethanesulfonamide], the pKd at human MLKL (full length) is over 9.00; at human RIPK1 it was under 5.00; at human RIPK3, under 5.00.

On to `Cn1nc(-c2ccc(NS(=O)(=O)C(F)F)c(OCc3ccc(Cl)c(F)c3)c2)c2c(N)ncc(-c3cnn(C4CCOCC4)c3)c21` [Compound 132, N-(4-(4-amino-1-methyl-7-(1-(tetrahydro-2H-pyran-4-yl)-1H-pyrazol-4-yl)-1H-pyrazolo[4,3-c]pyridin-3-yl)-2-((4-chloro-3-fluoro-benzyl)oxy)phenyl)-1,1-difluoromethane-sulfonamide], for which the negative-log Kd (pKd) is over 9.00 on human MLKL (full length), under 5.00 at human RIPK1 and under 5.00 on human RIPK3.

Take `C[C@H](Oc1cc(-c2nn(C)c3c(-c4cccnc4)cnc(N)c23)ccc1NS(=O)(=O)C(F)F)c1ccc(F)cc1` [Compound 25, (S)-N-(4-(4-amino-1-methyl-7-(pyridin-3-yl)-1H-pyrazolo[4,3-c]pyridin-3-yl)-2-(1-(4-fluorophenyl)ethoxy)phenyl)-1,1-difluoromethanesulfonamide]: the pKd was over 9.00 on human MLKL (full length), under 5.00 at human RIPK1 and under 5.00 on human RIPK3.

With `C[C@H](Oc1cc(-c2nn(C)c3c(-c4cnn(C5CN(CC(F)(F)F)C5)c4)cnc(N)c23)ccc1NS(=O)(=O)C(F)F)c1ccc(F)cc1` [Compound 77, (S)-N-(4-(4-amino-1-methyl-7-(1-(1-(2,2,2-trifluoroethyl)azetidin-3-yl)-1H-pyrazol-4-yl)-1H-pyrazolo[4,3-c]pyridin-3-yl)-2-(1-(4-fluorophenyl)ethoxy)phenyl)-1,1-difluoromethanesulfonamide], the values for the pKd on human MLKL (full length), on human RIPK1 and at human RIPK3 were over 9.00, under 5.00 and under 5.00, respectively.

Turning to `C[C@H](Oc1cc(-c2nn(C)c3c(-c4ccncc4)cnc(N)c23)ccc1NS(=O)(=O)C(F)F)c1ccc(F)cc1` [Compound 18, (S)-N-(4-(4-amino-1-methyl-7-(pyridin-4-yl)-1H-pyrazolo[4,3-c]pyridin-3-yl)-2-(1-(4-fluorophenyl)ethoxy)phenyl)-1,1-difluoromethanesulfonamide], the values for the pKd at human MLKL (full length), on human RIPK1 and at human RIPK3 were over 9.00, under 5.00 and under 5.00, respectively.

Turning to `Cn1nc(-c2ccc(NS(=O)(=O)C(F)F)cc2OCc2cccc(F)c2)c2c(N)ncc(-c3cnn(C4CCOCC4)c3)c21` [Compound 135, N-(4-(4-amino-1-methyl-7-(1-(tetrahydro-2H-pyran-4-yl)-1H-pyrazol-4-yl)-1H-pyrazolo[4,3-c]pyridin-3-yl)-3-((3-fluorobenzyl)oxy)phenyl)-1,1-difluoro-methanesulfonamide], the pKd on human MLKL (full length) was over 9.00; at human RIPK1 it was under 5.00; on human RIPK3 it was under 5.00.

Turning to `C[C@H](Oc1cc(-c2nn(C)c3c(-c4cnn(C5CCOCC5)c4)cnc(N)c23)ccc1NS(=O)(=O)C(F)F)c1cccc(Cl)c1` [Compound 122], the pKd at human MLKL (full length) was over 9.00; at human RIPK1 it was under 5.00; at human RIPK3, under 5.00.

Turning to `CCS(=O)(=O)Nc1ccc(-c2coc3c(-c4cnn(C5CCOCC5)c4)cnc(N)c23)cc1OCc1ccc(F)cc1` [Compound 3, N-(4-(4-amino-7-(1-(tetrahydro-2H-pyran-4-yl)-1H-pyrazol-4-yl)furo[3,2-c]pyridin-3-yl)-2-((4-fluorobenzyl)oxy)phenyl)ethanesulfonamide], the pKd was over 9.00 at human MLKL (full length), under 5.00 on human RIPK1 and under 5.00 at human RIPK3.

`C[C@H](Oc1cc(-c2cnn3c(-c4cnn(C5CCOCC5)c4)cnc(N)c23)ccc1NS(=O)(=O)C(F)F)c1ccc(F)cc1` [Compound 36, (S)-N-(4-(4-amino-7-(1-(tetrahydro-2H-pyran-4-yl)-1H-pyrazol-4-yl)pyrazolo[1,5-a]pyrazin-3-yl)-2-(1-(4-fluorophenyl)ethoxy)phenyl)-1,1-difluoromethane-sulfonamide]: the results for the pKd at human MLKL (full length), on human RIPK1 and on human RIPK3 were over 9.00, under 5.00 and under 5.00, respectively.

For `Cc1cc(-c2ccc(NS(=O)(=O)C(F)F)c(OCc3ccc(F)cc3)c2)c2c(N)n[nH]c2n1` [Compound 70, N-(4-(3-Amino-6-methyl-1H-pyrazolo[3,4-b]pyridin-4-yl)-2-((4-fluorophenyl)methoxy)phenyl)-1,1-difluoromethanesulfonamide], the pKd is over 9.00 on human MLKL (full length), under 5.00 at human RIPK1 and under 5.00 at human RIPK3.

With `Cn1nc(-c2ccc(NS(=O)(=O)C(F)F)c(OCc3cccc(Cl)c3)c2)c2c(N)ncc(-c3cnn(C4CCOCC4)c3)c21` [Compound 130, N-(4-(4-amino-1-methyl-7-(1-(tetrahydro-2H-pyran-4-yl)-1H-pyrazol-4-yl)-1H-pyrazolo[4,3-c]pyridin-3-yl)-2-((3-chlorobenzyl)oxy)phenyl)-1,1-difluoromethane-sulfonamide], the pKd on human MLKL (full length) is over 9.00; at human RIPK1, under 5.00; on human RIPK3, under 5.00.

On to `C[C@H](Oc1cc(-c2cnn3c(-c4ccncc4)cnc(N)c23)ccc1NS(=O)(=O)C(F)F)c1ccc(F)cc1` [Compound 39, (S)-N-(4-(4-amino-7-(pyridin-4-yl)pyrazolo[1,5-a]pyrazin-3-yl)-2-(1-(4-fluoro-phenyl)ethoxy)phenyl)-1,1-difluoromethane-sulfonamide], for which the results for the pKd on human MLKL (full length), on human RIPK1 and at human RIPK3 were over 9.00, under 5.00 and under 5.00, respectively.
